From patent US20210253567A1, “AMORPHOUS AND CRYSTALLINE FORMS OF VALBENAZINE SALT” (SUZHOU PENGXU PHARMATECH CO., LTD., priority 2018, published 2021)

What was measured:
[1] = Stability of valbenazine salts, general statement
[2] = Stability HPLC data summary of Form A1 of valbenazine oxalate (appearance, assay, HPLC, chiral HPLC, moisture on storage); type: physicochemical; conditions: 2~8° C.; for Appearance: double PE bags sealed in laminated aluminum foil bag
Source text: Stability Data of Form A1 of Valbenazine Oxalate [table]

stability (in words) [1]: good stability | Assay (Anhydrous) ([2]; 0 months): 100.1% | Chiral HPLC Chiral imp-1 ([2]; 0 months): 0.01% | Chiral HPLC Chiral imp-2 ([2]; 0 months): 0.04% | Chiral HPLC Chiral imp-3 ([2]; 0 months): 0.03% | Chiral HPLC Valbenazine ([2]; 0 months): 99.93% | HPLC Imp-1 (LSI) ([2]; 0 months): 0.03% | HPLC Imp-2 ([2]; 0 months): 0.01% | HPLC Imp-3 ([2]; 0 months): 0.02% | HPLC Imp-4 ([2]; 0 months): 0.02% | HPLC Imp-5 ([2]; 0 months): 0.01% | HPLC Imp-7 ([2]; 0 months): 0.01% | HPLC Valbenazine ([2]; 0 months): 99.81% | Moisture ([2]; 0 months): 0.12% | Assay (Anhydrous) ([2]; 0.5 months): 100.8% | Chiral HPLC Chiral imp-1 ([2]; 0.5 months): 0.01% | Chiral HPLC Chiral imp-2 ([2]; 0.5 months): 0.04% | Chiral HPLC Chiral imp-3 ([2]; 0.5 months): 0.03% | Chiral HPLC Valbenazine ([2]; 0.5 months): 99.93% | HPLC Imp-1 (LSI) ([2]; 0.5 months): 0.03% | HPLC Imp-3 ([2]; 0.5 months): 0.03% | HPLC Imp-5 ([2]; 0.5 months): 0.01% | HPLC Imp-7 ([2]; 0.5 months): 0.02% | HPLC Valbenazine ([2]; 0.5 months): 99.84% | Moisture ([2]; 0.5 months): 0.2% | Assay (Anhydrous) ([2]; 1 months): 101.0% | Chiral HPLC Chiral imp-1 ([2]; 1 months): 0.01% | Chiral HPLC Chiral imp-2 ([2]; 1 months): 0.04% | Chiral HPLC Valbenazine ([2]; 1 months): 99.95% | HPLC Imp-1 (LSI) ([2]; 1 months): 0.03% | HPLC Imp-2 ([2]; 1 months): 0.01% | HPLC Imp-3 ([2]; 1 months): 0.02% | HPLC Imp-4 ([2]; 1 months): 0.01% | HPLC Imp-5 ([2]; 1 months): 0.01% | HPLC Imp-7 ([2]; 1 months): 0.01% | HPLC Valbenazine ([2]; 1 months): 99.84% | Moisture ([2]; 1 months): 0.19% | Assay (Anhydrous) ([2]; 3 months): 100.33% | Chiral HPLC Chiral imp-1 ([2]; 3 months): 0.01% | Chiral HPLC Chiral imp-2 ([2]; 3 months): 0.07% | Chiral HPLC Chiral imp-3 ([2]; 3 months): 0.02% | Chiral HPLC Valbenazine ([2]; 3 months): 99.91% | HPLC Imp-1 (LSI) ([2]; 3 months): 0.04% | HPLC Imp-2 ([2]; 3 months): 0.02% | HPLC Imp-3 ([2]; 3 months): 0.04% | HPLC Imp-4 ([2]; 3 months): 0.03% | HPLC Imp-5 ([2]; 3 months): 0.02% | HPLC Imp-7 ([2]; 3 months): 0.01% | HPLC Valbenazine ([2]; 3 months): 99.78% | Moisture ([2]; 3 months): 0.4% | Appearance ([2]; 0 months): White | Appearance ([2]; 0.5 months): White solid | Appearance ([2]; 1 months): White solid | Appearance ([2]; 3 months): White solid
Substance: valbenazine oxalate [Form A1 of valbenazine oxalate]
